Source: article PMC10347550, “Cyclic Ruthenium-Peptide Conjugates as Integrin-Targeting Phototherapeutic Prodrugs for the Treatment of Brain Tumors” (Journal of the American Chemical Society, 2023)
Where two headings read alike, the source gives them in different places.

How the values were obtained:
integrin αIIbβ3 = biological target: T1, integrin αIIbβ3 (Homo sapiens, UniProt P05106+P08514); details: literature values; read-out: Kd for the same integrin heterodimers (αIIbβ3); cited from earlier work
T1 construct: Purified human platelet glycoprotein integrin αIIbβ3; purchased Enzyme Research Laboratories GP2b3a; host or cells: human platelets (natural source)
Procedure: Since the ruthenium complexes were designed to target integrins, their interaction with the protein should be a key process for recognition, uptake, and toxicity. To check whether the ruthenium-coordinated peptide still retained the interaction binding affinity with the targeted integrin, the association constant (Ka) of both isomers of [1]Cl2 to integrin αIIbβ3 was measured using luminescence spectroscopy. In this assay, the emission intensity from aromatic residues (tryptophan, tyrosine, and phenylalanine) in integrin αIIbβ3 (λemi = 345 nm) was monitored upon the addition of different concen ...

[1] = system: ITGAV knockdown U87MG cells (U87MG-kd); test: Cellular Ru uptake by ICP-MS, 2 h; assay type: cell-based, human; details: 10 μM, dark, normoxia, n = 3
Procedure: (§1) The uptake studies in U87MG and U87MG-kd cell lines were conducted as follows: 2 × 10^5 cells were cultured in 6-well plates for 24 h in Opti-MEM (2 mL), after which cells were incubated with Δ-[1]Cl2 or Δ-[3]Cl2 (10 μM) for 2 h, washed with cold PBS twice, harvested, concentrated in 200 μL of PBS, and counted using trypan blue and a cell counter (Bio-Rad). Finally, cell pellets were collected in 1.5 mL Eppendorf tubes after removing additional PBS by centrifuging at 500g; 0.25 mL of 65% HNO3 was then added to each tube, and all tubes were kept at room temperature (RT) overnight. The cell lysates were transferred to 15 mL centrifuge tubes (Biologix) and filled with 4.75 mL of MilliQ H2O.
(§2) The ruthenium concentration was measured in each sample by ICP-MS (NexION 2000, PerkinElmer), providing the metal content in each well in ppb. Combining the cell numbers and Ru uptake, averaging over technical triplicates, the ruthenium uptake values were finally expressed in μg Ru/million cells.

[2] = system: wild-type U87MG cells (U87MG-wt); test: Cellular Ru uptake by ICP-MS, 2 h; assay type: cell-based, human; details: 10 μM, dark, normoxia, n = 3
Procedure: as §1, §2

[3] = Octanol-water partition coefficient (log P); assay type: physicochemical; details: shake-flask, octanol-saturated water / water-saturated octanol, shaken 24 h in the dark, room temperature; Ru in water phase by ICP-MS; ± SD from 4 concentration points
Procedure: Each complex was first dissolved in octanol-saturated water (0.5 mM, 500 μL) and centrifuged (2000 rpm, 5 min) to isolate the undissolved solid. 450 μL of the supernatant was taken out as the stock solution; after that, 5, 10, 50, 100, and 150 μL of solution were added to the 15 mL tube, and more octanol-saturated water was added to adjust the final volume to 1 mL. 1 mL of water-saturated octanol was added further, and the tubes were mildly shaken (Gesellschaft für Labortechnik mbH, type3016) for 24 h under dark conditions. After that, the solutions were centrifuged for 5 min at 2000 rpm at room temperature, and 0.5 mL of the water phase (below phase) was moved to a 15 mL centrifuge tube by an Eppendorf pipette. Then, 0.1 mL of 65% HNO3 was added into the tube using an organic pipette gun, and each solution was shaken for 1 h. 9.9 mL of MilliQ water was added into each tube, making a total volume of 10 mL. To detect the Ru content of the stock solution, 10 μL of each stock solution was mixed with 0.490 mL of 65% HNO3, and the mixture was shaken for 1 h. Then, […] of MilliQ water was added to the tube, making a total volume of 10 mL. ICP-MS measurement was performed using a NexION 2000 from PerkinElmer. The ruthenium content in each well was obtained in ppb. The partition coefficients (log P) were calculated using the following eq 3 [drawing 3] 3
where [complex]total is the concentration of the complex in the control sample (where no water-saturated octanol was added) and [complex]water is the concentration of the complex in the aqueous layer.

PC-3 cells = test: 2D cytotoxicity assay, 24 h DLI & no wash, SRB endpoint; assay type: cell-based, human; details: PC-3 2D monolayer, not washed, SRB at 96 h, n = 3
Procedure: (§3) For each complex, two identical plates were prepared, one of which was irradiated with light, while the other was used as a dark control. […] Finally, at t = 96 h, 100 μL of cold trichloroacetic acid (10% w/v) was added to each well to fix the cells, and all plates were then transferred to a 4 °C refrigerator for 48 h before performing an SRB cell quantification endpoint assay.[72] Trichloroacetic acid was first removed and each plate was gently washed with demi water 3–5 times. Then, each well was dried in the air, and 100 μL of 0.6% SRB solution (0.6% w/v in 1% v/v acetic acid/H2O solution) was added into each well where it was allowed to stain for 30 min. Then, the plates were washed 3–5 times using an acetic acid solution (1% v/v). Once the plate was washed it was allowed to dry overnight. Then, 200 μL of 10 mM Tris base buffer was added to each well and the plate was allowed to sit on an orbital shaker for 0.5–16 h. After mixing, the absorbance of each well was determined by an M1000 Tecan Reader, reading at 510 nm. All experiments were conducted in independent biological triplicate. The obtained data were analyzed with Graphpad Prism 5 using the dose–response two-parameter Hill slope equation (eq 1) to obtain the half-maximal effective concentrations EC50 (defined as the concentration of drug that kills 50% of cells, compared to the untreated control). [drawing 1] 1

A549 cells = test: as above; assay type: cell-based, human; details: A549 2D monolayer, not washed, n = 3
Procedure: as §3

U87MG cells [4] = test: as above; assay type: cell-based, human; details: U87MG 2D monolayer, not washed, SRB at 96 h, n = 3
Procedure: as §3

U87MG cells [5] = test: Apopxin/Nuclear Green DCS1 double-staining cell death mode study; assay type: cell-based, human; details: 20 μM, 24 h incubation, 1 h after green light (13.1 J/cm^2), flow cytometry
Procedure: After 24 h of incubation, one plate labeled light was irradiated for 20 min using 520 nm green light (13.1 J/cm^2), and then both plates were allowed to incubate further for 1, 2, 6, or 24 h in a normoxia incubator. After incubation, the cells were trypsinized, collected, and washed with cold PBS twice. […] Cells after staining were detected by flow cytometry (CytoFLEX flow cytometer) immediately. Control groups with only assay buffer, only buffer and Apopxin Deep Red Indicator, only buffer and Nuclear Green DCS1, and all three were included to be used for gating during data analysis. Parameters APC (638 nm excitation, 660/10 nm emission) and FITC (488 nm excitation, 525/40 nm emission) were used considering their similar excitation/emission wavelength with two detectors Apopxin Deep Red Indicator, Ex/Em = 630/660 nm (apoptosis), and Nuclear Green DCS1, Ex/Em = 490/520 nm (necrosis).

U87MG cells [6] = test: Intracellular ROS generation, CellROX Deep Red, flow cytometry; details: 15 µM, 24 h
Procedure: The generation of ROS (reactive oxygen species) in U87MG cells was measured using a ROS deep red fluorescence indicator (Abcam, ab186029). U87MG (1 × 10^5, 1 mL) were seeded into 12-well plates and incubated for 24 h in the dark under normoxia. The cells were then treated with 15 μM complexes with Opti-MEM, Λ-[1]Cl2, Δ-[1]Cl2, cisplatin, or Rose Bengal. There are two groups for each drug (dark + light). After 24 h of incubation under normoxia, the plate was washed with cold PBS once, and cells were trypsinized, harvested, and then resuspended in 150 μL of PBS. The cell suspension from the centrifuge tubes was transferred to 96-round-bottom well plates (Thermo Scientific, 268200), and the light group was irradiated for 20 min with 520 nm light (dose = 13.1 J/cm^2). After which, the Cellular ROS Deep Red dye (abcam, ab186029) was added with 1000× dilution, and cells were further stained for 1 h. Untreated cells were maintained as negative controls, whereas a 250 μM tBHP solution in Opti-MEM complete was administered as a positive control for ROS. The levels of intracellular ROS were then determined using the CytoFLEX flow cytometer. Forward versus side scatter (FSC vs SSC) gating was used to select the population of interest and avoid cell debris. A forward scatter height (FSC-H) vs forward scatter area (FSC-A) gating was used for doublet exclusion. Fluorescence measurements were acquired with the APC-A (638 nm excitation, 660/10 nm emission) channel given the known excitation/emission wavelengths of the ROS Deep Red dye (650/675 nm, respectively). All flow cytometry data were processed using FlowLogic 8.5 software.

U87MG spheroids = test: 3D tumor spheroid viability assay, CellTiter-Glo 3D; assay type: cell-based, human; details: U87MG 3D spheroids, CellTiter-Glo 3D at 96 h, n = 3
Procedure: The spheroids were incubated further under normoxia. […] After 30 min of shaking on an IKA Vibrax shaker at 500 rpm at room temperature, the luminescence in each well was measured with a Tecan microplate reader. […] All experiments were conducted in three biologically independent replicates.

[7] = 1% O2, dark, 24 h treatment, read-out: EC50,dark
[8] = 1% O2, 520 nm, 7.22 mW/cm^2, 13.1 J/cm^2, 30 min, read-out: EC50,light
[9] = 21% O2, dark, 24 h treatment, read-out: EC50,dark
[10] = 21% O2, 520 nm, 10.9 mW/cm^2, 13.1 J/cm^2, 20 min, read-out: EC50,light

fibrinogen
Kd (integrin αIIbβ3): 0.03 µM

[Ru(Ph2phen)2(κ^S,κ^N-Ac-MRADH-NH2)]Cl2 (sidechain bridge or staple) [Δ-[3]Cl2, Gly-Ala analogue of [1]Cl2]
uptake amount compared to U87MG-wt cells [1]: taken up in similar amounts
cellular uptake compared to Δ-[1]Cl2 [2]: significantly lower
log P (octanol-water partition coefficient) [3]: 0.02 ± 0.05

N.N.[Cl][Pt][Cl] [cisplatin, reference compound]
EC50 (PC-3 cells; [7]): 23.1 µM
EC50 (PC-3 cells; [8]): 25.8 µM
EC50 (PC-3 cells; [9]): 4.5 µM
EC50 (PC-3 cells; [10]): 4.1 µM
EC50 (A549 cells; 1% O2, dark, 24 h treatment, SRB at 96 h, read-out: EC50,dark): 6.5 µM
EC50 (A549 cells; 1% O2, 520 nm, 7.22 mW/cm^2, 13.1 J/cm^2, 30 min, SRB at 96 h, read-out: EC50,light): 6.3 µM
EC50 (A549 cells; 21% O2, dark, 24 h treatment, SRB at t = 96 h, read-out: EC50,dark): 2.3 µM
EC50 (A549 cells; 21% O2, 24 h treatment, 520 nm, 10.9 mW/cm^2, 13.1 J/cm^2, 20 min, SRB at 96 h, read-out: EC50,light): 2.4 µM
EC50 (U87MG cells [4]; [7]): 13 µM
EC50 (U87MG cells [4]; [8]): 12.5 µM
EC50 (U87MG cells [4]; [9]): 2.8 µM
EC50 (U87MG cells [4]; [10]): 4 µM
cell death mode (U87MG cells [5]): mainly died via apoptosis
Ratio of L/D (light/dark ROS ratio) (U87MG cells [6]): 0.81
EC50 (U87MG spheroids; [9]): 8.6 µM
EC50 (U87MG spheroids; 21% O2, green light after 24 h treatment, read-out: EC50,light): 7.9 µM
